Results from DBAASP.
In brackets after ≈: the same amount, converted by molar mass. Blank lines part the entries; values can stand above or below the compound they belong to.

What was measured:
Assay in all cases: ≥ marks a high value that may be exact or a test limit, other limits are often not marked, values filed in µg/mL are converted to µM
[1] = system: Micrococcus luteus ATCC 9341
[2] = system: Salmonella typhimurium KCTC 1926
[3] = system: Staphylococcus aureus KCTC 1621
[4] = system: Staphylococcus epidermidis KCTC 1917
[5] = system: Bacillus subtilis KCTC 3068
[6] = system: Escherichia coli KCTC 1682
[7] = system: Pseudomonas aeruginosa KCTC 1637
Bacillus subtilis = system: Bacillus subtilis
[8] = system: Staphylococcus aureus ATCC 43300
[9] = system: Pseudomonas aeruginosa PAO1
[10] = system: Pseudomonas aeruginosa ATCC 27853
[11] = system: Candida albicans ATCC 2002
[12] = system: Staphylococcus aureus ATCC 2592
Escherichia coli ML-35p = system: Escherichia coli ML-35p
[13] = system: Escherichia coli NCTC 10418
[14] = system: Staphylococcus aureus ATCC 25923
[15] = system: Candida albicans ATCC 90028
[16] = system: Escherichia coli ATCC 25726
Acinetobacter baumannii = system: Acinetobacter baumannii
[17] = system: Escherichia coli ATCC 25922
[18] = system: Staphylococcus aureus NCTC 8325

- MIC [1]: 0.4 µM (≈ 0.684 µg/mL)
Compound: CC[C@H](C)[C@H](NC(=O)[C@H](CC(C)C)NC(=O)[C@@H]1CCCN1C(=O)[C@H](Cc1ccccc1)NC(=O)[C@H](CCCCN)NC(=O)[C@H](Cc1ccccc1)NC(=O)[C@@H]1CCCN1C(=O)[C@H](Cc1ccccc1)NC(=O)[C@H](Cc1ccccc1)NC(=O)[C@@H]1CCCN1C(=O)[C@H](Cc1ccccc1)NC(=O)[C@H](CCCN=C(N)N)NC(=O)[C@@H](N)CCCN=C(N)N)C(N)=O [RRFPFFPFKFPLI]

- MIC [2]: 2 µM (≈ 4.6 µg/mL)
- MIC [3]: 2 µM (≈ 4.6 µg/mL)
- MIC [4]: 1 µM (≈ 2.3 µg/mL)
- MIC [5]: 1 µM (≈ 2.3 µg/mL)
- MIC [6]: 2 µM (≈ 4.6 µg/mL)
- MIC [7]: 2 µM (≈ 4.6 µg/mL)
Compound: CC[C@H](C)[C@H](NC(=O)[C@@H](N)CCCCN)C(=O)N[C@@H](CCCCN)C(=O)N[C@@H](CC(C)C)C(=O)N[C@@H](Cc1ccccc1)C(=O)N[C@@H](CCCCN)C(=O)N[C@@H](CCCCN)C(=O)N[C@@H](Cc1c[nH]c2ccccc12)C(=O)N1CCC[C@H]1C(=O)N[C@@H](CCCCN)C(=O)N[C@@H](Cc1ccccc1)C(=O)N[C@@H](CC(C)C)C(=O)N[C@@H](Cc1cnc[nH]1)C(=O)N[C@@H](CC(C)C)C(=O)N[C@@H](C)C(=O)N[C@@H](CCCCN)C(=O)N[C@@H](CCCCN)C(=O)N[C@@H](Cc1ccccc1)C(N)=O [KIKLFKKWPKFLHLAKKF]

- MIC (Bacillus subtilis): 7.95 µM (≈ 20 µg/mL)
- MIC [8]: 0.993 µM (≈ 2.5 µg/mL)
- MIC [9]: 3.97 µM (≈ 9.99 µg/mL)
- MIC [10]: 1.99 µM (≈ 5 µg/mL)
- MIC [11]: 1.99 µM (≈ 5 µg/mL)
- MIC [12]: 0.993 µM (≈ 2.5 µg/mL)
- MIC (Escherichia coli ML-35p): 19.9 µM (≈ 50 µg/mL)
Compound: CC[C@H](C)[C@H](NC(=O)CNC(=O)[C@@H](NC(=O)[C@H](C)NC(=O)[C@H](CCSC)NC(=O)[C@H](CCCCN)NC(=O)[C@@H](NC(=O)[C@@H](NC(=O)[C@@H]1CCCN1C(=O)CNC(=O)[C@H](CC(C)C)NC(=O)[C@@H](N)Cc1ccccc1)[C@@H](C)CC)[C@@H](C)CC)[C@@H](C)O)C(=O)N[C@@H](CC(C)C)C(=O)N1CCC[C@H]1C(=O)N[C@H](C(=O)N[C@@H](C)C(=O)N[C@H](C(=O)N[C@H]1CSSC[C@@H](C(=O)O)NC(=O)[C@H](CCCCN)NC(=O)[C@H](CCCCN)NC(=O)[C@H](CC(C)C)NC(=O)CNC(=O)[C@H](CCCCN)NC1=O)[C@@H](C)CC)[C@@H](C)O [FLGPIIKMATGILPTAICKGLKKC]

- MIC [1]: 0.8 µM (≈ 1.43 µg/mL)
Compound: CC[C@H](C)[C@H](N)C(=O)N[C@@H](CC(C)C)C(=O)N1CCC[C@H]1C(=O)N[C@@H](Cc1c[nH]c2ccccc12)C(=O)N[C@@H](CCCCN)C(=O)N[C@@H](Cc1c[nH]c2ccccc12)C(=O)N1CCC[C@H]1C(=O)N[C@@H](Cc1c[nH]c2ccccc12)C(=O)N[C@@H](C)C(=O)N1CCC[C@H]1C(=O)N[C@@H](Cc1c[nH]c2ccccc12)C(=O)N[C@@H](CCCN=C(N)N)C(=O)N[C@@H](CCCN=C(N)N)C(N)=O [ILPWKWPWAPWRR]

- MIC [13]: ≥ 160 µM
Compound: CC[C@H](C)[C@H](NC(=O)[C@H](CCCCN)NC(=O)[C@H](C)NC(=O)[C@H](C)N)C(=O)N[C@H](C(=O)N[C@@H](CC(C)C)C(=O)N[C@@H](CC(N)=O)C(=O)N1CCC[C@H]1C(=O)N[C@@H](CCCCN)C(=O)N[C@@H](Cc1ccccc1)C(=O)N[C@@H](CCCN=C(N)N)C(=O)N[C@H]1CSSC[C@@H](C(=O)O)NC(=O)[C@H](Cc2ccccc2)NC(=O)[C@H](C)NC(=O)[C@H](C)NC(=O)[C@H](Cc2ccccc2)NC1=O)[C@@H](C)CC [AAKIILNPKFRCFAAFC]

- MIC [14]: 50 µM (≈ 121 µg/mL)
- MIC [15]: 25 µM (≈ 60.6 µg/mL)
- MIC [16]: 12.5 µM (≈ 30.3 µg/mL)
Compound: CC[C@H](C)[C@H](NC(=O)CN)C(=O)NCC(=O)N[C@@H](CCCCN)C(=O)N[C@@H](Cc1ccccc1)C(=O)N[C@@H](CC(C)C)C(=O)N[C@@H](Cc1cnc[nH]1)C(=O)N[C@@H](CO)C(=O)N[C@@H](C)C(=O)NCC(=O)N[C@@H](CCCCN)C(=O)N[C@@H](Cc1ccccc1)C(=O)NCC(=O)N[C@@H](CCCCN)C(=O)N[C@@H](C)C(=O)N[C@@H](Cc1ccccc1)C(=O)N[C@H](C(=O)NCC(=O)N[C@@H](CCC(=O)O)C(=O)N[C@H](C(=O)N[C@@H](CCSC)C(=O)N[C@@H](CCCCN)C(=O)N[C@@H](CO)C(=O)O)[C@@H](C)CC)[C@@H](C)CC [GIGKFLHSAGKFGKAFIGEIMKS]

- MIC (Acinetobacter baumannii): 12.5 µM (≈ 28.3 µg/mL)
- MIC [14]: 12.5 µM (≈ 28.3 µg/mL)
- MIC [15]: 25 µM (≈ 56.5 µg/mL)
- MIC [16]: ≥ 50 µM
Compound: CC[C@H](C)[C@H](NC(=O)CN)C(=O)N[C@@H](Cc1c[nH]c2ccccc12)C(=O)N[C@@H](CC(=O)O)C(=O)N[C@H](C(=O)N[C@H](C(=O)N[C@@H](CCCCN)C(=O)N[C@@H](CO)C(=O)N[C@@H](CCSC)C(=O)NCC(=O)N[C@@H](CCCCN)C(=O)N[C@H](C(=O)N[C@@H](Cc1ccccc1)C(=O)N[C@@H](C)C(=O)NCC(=O)N[C@@H](C)C(=O)N[C@H](C(=O)N[C@@H](CC(C)C)C(=O)N[C@@H](CCC(N)=O)C(=O)N[C@@H](CC(N)=O)C(=O)N[C@@H](CC(C)C)C(N)=O)[C@@H](C)CC)C(C)C)[C@@H](C)CC)[C@@H](C)O [GIWDTIKSMGKVFAGAILQNL]

- MIC [1]: 1.6 µM (≈ 2.1 µg/mL)
Compound: CC[C@H](C)[C@H](N)C(=O)N[C@@H](CC(C)C)C(=O)N1CCC[C@H]1C(=O)N[C@@H](Cc1c[nH]c2ccccc12)C(=O)N[C@@H](CCCCN)C(=O)N[C@@H](Cc1c[nH]c2ccccc12)C(=O)N1CCC[C@H]1C(=O)N[C@@H](Cc1c[nH]c2ccccc12)C(=O)N[C@@H](Cc1c[nH]c2ccccc12)C(N)=O [ILPWKWPWW]

- MIC [1]: 0.4 µM (≈ 0.714 µg/mL)
Compound: CC[C@H](C)[C@H](N)C(=O)N[C@@H](CC(C)C)C(=O)NCC(=O)N[C@@H](Cc1c[nH]c2ccccc12)C(=O)N[C@@H](CCCCN)C(=O)N[C@@H](Cc1c[nH]c2ccccc12)C(=O)NCC(=O)N[C@@H](Cc1c[nH]c2ccccc12)C(=O)N[C@@H](Cc1c[nH]c2ccccc12)C(=O)NCC(=O)N[C@@H](Cc1c[nH]c2ccccc12)C(=O)N[C@@H](CCCN=C(N)N)C(=O)N[C@@H](CCCN=C(N)N)C(N)=O [ILGWKWGWWGWRR]

- MIC (Acinetobacter baumannii): 12.5 µM (≈ 29.2 µg/mL)
- MIC [14]: > 100 µM
- MIC [15]: 25 µM (≈ 58.3 µg/mL)
- MIC [16]: ≥ 50 µM
Compound: CC[C@H](C)[C@H](NC(=O)CN)C(=O)N[C@@H](Cc1c[nH]c2ccccc12)C(=O)N[C@@H](CC(=O)O)C(=O)N[C@H](C(=O)N[C@H](C(=O)N[C@@H](CCCCN)C(=O)N[C@@H](CO)C(=O)N[C@@H](CCSC)C(=O)NCC(=O)N[C@@H](CCCCN)C(=O)N[C@H](C(=O)N[C@@H](Cc1ccccc1)C(=O)N[C@@H](C)C(=O)NCC(=O)N[C@@H](CCCCN)C(=O)N[C@H](C(=O)N[C@@H](CCCCN)C(=O)N[C@@H](CCC(N)=O)C(=O)N[C@@H](CC(N)=O)C(=O)N[C@@H](CC(C)C)C(N)=O)[C@@H](C)CC)C(C)C)[C@@H](C)CC)[C@@H](C)O [GIWDTIKSMGKVFAGKIKQNL]

- MIC [14]: 6 µM (≈ 19.2 µg/mL)
- MIC [17]: 4 µM (≈ 12.8 µg/mL)
- MIC [18]: 4 µM (≈ 12.8 µg/mL)
- MIC [15]: ≥ 62 µM
- MIC [16]: 6 µM (≈ 19.2 µg/mL)
Compound: CC[C@H](C)[C@H](NC(=O)CN)C(=O)N[C@@H](CC(C)C)C(=O)N[C@@H](CO)C(=O)N[C@@H](CO)C(=O)N[C@H](C(=O)N[C@@H](CCCCN)C(=O)NCC(=O)N[C@H](C(=O)N[C@@H](C)C(=O)N[C@@H](CCCCN)C(=O)NCC(=O)N[C@H](C(=O)N[C@@H](C)C(=O)N[C@@H](CCCCN)C(=O)N[C@@H](CC(N)=O)C(=O)N[C@H](C(=O)N[C@@H](C)C(=O)N[C@@H](C)C(=O)N[C@@H](CCC(N)=O)C(=O)N[C@@H](CC(C)C)C(=O)N[C@@H](CC(C)C)C(=O)N[C@@H](CC(=O)O)C(=O)N[C@H](C(=O)N[C@@H](CC(C)C)C(=O)N[C@@H](CCCCN)C(=O)N[C@H]1CSSC[C@@H](C(=O)O)NC(=O)CNC(=O)[C@H]([C@@H](C)O)NC(=O)[C@H]([C@@H](C)CC)NC(=O)[C@H](CCCCN)NC1=O)[C@@H](C)O)C(C)C)C(C)C)C(C)C)[C@@H](C)CC [GILSSIKGVAKGVAKNVAAQLLDTLKCKITGC]

- MIC [2]: 4 µM (≈ 9.6 µg/mL)
- MIC [3]: 4 µM (≈ 9.6 µg/mL)
- MIC [4]: 2 µM (≈ 4.8 µg/mL)
- MIC [5]: 2 µM (≈ 4.8 µg/mL)
- MIC [6]: 8 µM (≈ 19.2 µg/mL)
- MIC [7]: 8 µM (≈ 19.2 µg/mL)
Compound: CC[C@H](C)[C@H](N)C(=O)NCC(=O)N[C@@H](CCCCN)C(=O)N[C@@H](CCCCN)C(=O)N[C@@H](Cc1ccccc1)C(=O)N[C@@H](CCCCN)C(=O)N[C@@H](CCCN=C(N)N)C(=O)N[C@H](C(=O)N[C@H](C(=O)N[C@@H](CCC(N)=O)C(=O)N[C@@H](CCCN=C(N)N)C(=O)N[C@H](C(=O)N[C@@H](CCCCN)C(=O)N[C@@H](CCCCN)C(=O)N[C@@H](Cc1ccccc1)C(=O)N[C@@H](CC(C)C)C(=O)N[C@@H](CCCN=C(N)N)C(=O)N[C@@H](CCCCN)C(=O)N[C@@H](CC(C)C)C(=O)O)[C@@H](C)CC)C(C)C)[C@@H](C)CC [IGKKFKRIVQRIKKFLRKL]
